# Entries after “also recorded” stand apart in the source; their conditions may differ.
# Key:
# [1] = test system: LF-promoter; test: LF reporter gene (LAC-LUC) luciferase assay in U937 cells; type: cell-based, human; conditions: 1 mM NAM, 16 h, vs PBS
# Method: The inventors designed a −230 LF promoter reporter plasmid (LAC-LUC) including a C/EBP-binding site as previously described^15. For the reporter gene assay, 2×10^6 […] cells were transiently transfected either with 2 μg of the LAC-LUC luciferase reporter gene constructs or the empty-vector control (pGL3, Promega, Madison, Wis., USA), as well as 0.2 μg of Renilla luciferase (pRL-SV40). Transfections were performed using the nucleofection technique with the Amaxa-Kit (Invitrogen, Karlsruhe, Germany) according to the manufacturer's instructions. After 16 h of transfection, the cells were treated with NAM (1 mM) for an additional 16 h. The lysates were harvested and luciferase activity measured by the Dual-Luciferase reporter assay system (Promega, Madison, Wis., USA). For all transfection studies, luciferase activity was normalized using pRL-SV40 activity. Results represent the mean of three independent experiments performed in triplicate.
# [2] = test system: S. aureus; test: Murine systemic (i.p.) S. aureus infection; type: in vivo, mouse; conditions: 250 mg/kg i.p. daily from 24 h before infection, 48 h p.i.
# Method: Following euthanization of mice on the specified day, infected skin lesion tissue was aseptically excised, and thoroughly homogenized and mixed in 1 mL of PBS as previously shown^43. Ten-fold serial dilutions of the homogenates were plated on THA for CFU determination. The spleen and both kidneys were aseptically removed from each animal and processed in the same way. When required, the appropriate homogenized suspensions (skin lesions) were centrifuged at 15,000 g for 10 min and supernatants stored at −80° C. for subsequent analysis by ELISA.
# Mice were systemically infected by intraperitoneal (i.p.) injection of 1×10^7 CFU/mL S. aureus for 48 h. Following euthanasia, the spleen and both kidneys were removed for CFU determination.
# [3] = test system: P. aeruginosa; test: Human peripheral whole blood killing assay, P. aeruginosa; type: cell-based; conditions: NAM-pretreated human blood
# Method: This well described phagocytic survival assay has been previously reported^42. Bacteria was pelleted, washed twice, diluted to the specified inoculum in 25 μl PBS (without Ca^2+ and Mg^2+), and immediately mixed with 75 μl of freshly drawn human or murine peripheral whole blood in sterile heparinized 2 mL round-bottom Eppendorf tubes. When required, murine plasma was obtained by centrifugation of heparinized whole blood at 2000×g for 15 min at RT. Reactions (performed in minimum in triplicate) were incubated at 37° C. for 1-3 h on a rotary shaker, at which time ten-fold serial dilutions were plated on THA for enumeration of surviving CFU.
# When required, freshly drawn human or murine peripheral blood was pretreated with NAM (˜0.1 mM or ˜10 mM) or PBS (without Ca^2+ and Mg^2+), prior to inoculation with bacteria.
# Participants in the inventors' study included 15 healthy humans with a negative history of infection or antibiotic treatments in the prior 4 weeks. Peripheral blood was collected from individuals in a fasting condition. Polymorph-prep (Axis-Shield, Oslo, Norway) was used for the isolation of PMNs according to the manufacturer's protocol.
# [4] = test system: CEBPE promoter region; test: ChIP: histone H3 acetylation at CEBPE promoter in BMMC; type: cell-based, mouse; conditions: WT BMMC, 1 mM NAM, 12 h, vs untreated
# Method: (§1) ChIP assay kit (Upstate Biotechnology, Lake Placid, N.Y.) was used, and chromatin was prepared for IP as instructed by the manufacturer. The sonicated chromatin was immunoprecipitated with either 5 μg of anti-acetylated histone H3 antibody or normal rabbit IgG antibody as negative control (Upstate Biotechnology). Immunoprecipitated DNA was subsequently analyzed by PCR using primers specific for the CEBPE promoter region; input chromatin was analyzed for β-actin mRNA as a positive control. The optimal reaction conditions for PCR were determined for each primer pair. Primers were denatured at 95° C. for 1 min and annealed at 60° C. for 1 min, followed by elongation at 72° C. for 1 min; each product was amplified 35 cycles. PCR products were analyzed by 2.5% agarose/ethidium bromide gel electrophoresis. […] The primers used for ChIP analysis were: human CEBPE 5′-GCTTTGGCCAAGCCCAGGGA-3′ (forward) (SEQ ID NO: 9), 5′-TGCTGGGCTCCACCTACCCC-3′ (reverse) (SEQ ID NO: 10); human β-actin: 5′-CTCCTCGGGAGCCACACGCA-3′ (forward) (SEQ ID NO: 1), 5′-TAGGGGAGCTGGCTGGGTGG-3′ (reverse) (SEQ ID NO: 12); murine CEBPE: 5′-TGAGGCTGCAGCTTGCCTGG-3′ (forward) (SEQ ID NO: 13), 5′-ACCAAGCTACCCCTGGCCCT-3′ (reverse) (SEQ ID NO: 14), murine β-actin: 5′-ACCTGTTACTTTGGGAGTGGCAAGC-3′ (forward) (SEQ ID NO: 15), 5′-GTCGTCCCAGTTGCTAACAATGCC-3′ (reverse) (SEQ ID NO: 16).
# [5] = test system: S. aureus; test: Human peripheral whole blood killing assay, S. aureus; type: cell-based
# [6] = test system: S. aureus; test: Murine peripheral whole blood killing assay; type: cell-based, mouse
# [7] = test system: CEBPE promoter region; test: ChIP: histone H3 acetylation at CEBPE promoter in human PMNs from NAM-treated blood; type: cell-based; conditions: blood treated with 1 mM NAM, 12 h
# Method: as §1, with “16). […]” for “16).”
compound,measurement,setting,value
"NC(=O)c1cccnc1 [NAM, Nicotinamide]",increase in LF reporter gene activity,[1],2.5 fold
same,bacterial CFU recovered from spleens and kidneys vs PBS,[2]; C/EBPε−/− mice,no impact
same,lower S. aureus CFU in spleens and kidneys vs PBS,[2]; WT mice,approximately 2 logic
same,"P. aeruginosa CFU recovered / outcome, NAM- vs PBS-treated blood",[3],improved the outcome of infection; also recorded: enhances clearance
same,increase in histone acetylation at the CEBPE promoter,[4],3 fold
same,"CFU recovered, NAM- vs PBS-treated blood","[5]; NAM 1 mM or 10 mM 24 h, 1 h and 3 h of infection",Significantly less CFU
same,reduction of S. aureus survival in whole blood vs PBS,"[5]; NAM 1 mM or 10 mM 24 h pretreatment, 3 h p.i.",2-3 log10
same,"CFU recovered, NAM- vs PBS-treated blood","[6]; C/EBPε−/− blood, 1 mM NAM 24 h, 1 h and 3 h of infection",no impact; also recorded: not statistically different
same,"CFU recovered, NAM- vs PBS-treated blood","[6]; WT blood, 1 mM NAM 24 h, 1 h and 3 h of infection",Significantly less CFU
same,enhanced killing of S. aureus vs PBS,"[6]; WT blood, 1 mM NAM pretreatment 24 h",more than 3 log10
same,"CFU recovered, NAM- vs PBS-treated blood","[6]; WT blood, 1 mM NAM pretreatment for only 4 h",did not result in CFU differences
same,increase in histone H3 acetylation at the CEBPE promoter,[7],5 fold
